Test results: article PMC8070829, “Discovery of New Coumarin-Based Lead with Potential Anticancer, CDK4 Inhibition and Selective Radiotheranostic Effect: Synthesis, 2D & 3D QSAR, Molecular Dynamics, In Vitro Cytotoxicity, Radioiodination, and Biodistribution Studies” (Molecules, 2021)
Read-outs that look alike come from different tables or passages of the source.

Columns and labels:
MCF-7 cells = assay: In vitro cytotoxicity, MCF-7; type: cell-based; conditions: Homo sapiens, MCF7, MCF-7 breast cancer cell line
Description: (§1) Mammalian cell lines: MCF-7 cells (human breast cancer) cell line, A-549 (human Lung Carcinoma) and CHO-K1 cells (hamster ovary cancer) cell line were obtained from the American Type Culture Collection (ATCC, Rockville, MD). Fetal bovine serum, RPMI-1640, HEPES buffer solution, L-glutamine, gentamycin and 0.25% Trypsin-EDTA were purchased from Lonza (Belgium). All reagents and chemicals were of pharmaceutical pure grade. Non-carrier added Na^131I solution (pH = 7) was purchased from the Research and Production Facility, The Egyptian Atomic Energy Authority. Chemicals were purchased from Sigma Aldrich and Lonza. Monitoring of chemical reactions was done by using analytical TLC with Merck 60 F-254 silica-gel plates (Merck, Germany), and visualization was done with ultraviolet light.
(§2) Cytotoxicity study was performed at the Regional Centre for Mycology and Biotechnology (RCMB), Al-Azhar University. Mammalian cell lines: human breast cancer cell line (MCF-7 cells), human colon cancer cell line (HCT-116 cells), and human lung cancer cell line (A-549 cells) were obtained from VACSERA Tissue Culture Unit, Cairo, Egypt. The cells were propagated in Dulbecco’s modified Eagle’s medium supplemented with 10% heat-inactivated fetal bovine serum, 1% L-glutamine, HEPES buffer, and 50 μg/mL gentamycin. All cells were maintained at 37 °C in a humidified atmosphere with 5% CO2 and were subcultured two times a week. For the cytotoxicity assay, the cells were seeded in 96-well plate at a cell concentration of 1 × 10^4 cells per well in 100 μL of growth medium. Fresh medium containing different concentrations of the test sample was added after 24 h of seeding. Serial two-fold dilutions of the tested chemical compound were added to confluent cell monolayers dispensed into 96-well, flat-bottomed microtiter plates (Falcon, NJ, USA) using a multichannel pipette. The microtiter plates were incubated at 37 °C in a humidified incubator with 5% CO2 for a period of 48 h. Three wells were used for each concentration of the test sample. Control cells were incubated without test sample and with or without DMSO. The little percentage of DMSO present in the wells (maximal 0.1%) was found not to affect the experiment. After incubation of the cells for at 37 °C, various concentrations of sample were added, and the incubation was continued for 24 h, and viable cells yield was determined by a colorimetric method. In brief, after the end of the incubation period, media were aspirated, and the crystal violet solution (1%) was added to each well for at least 30 min. The stain was removed, and the plates were rinsed using tap water until all excess stain is removed. Glacial acetic acid (30%) was then added to all wells and mixed thoroughly, and then the absorbance of the plates was measured after gently shaken on a microplate reader, using a test wavelength of 490 nm. All results were corrected for background absorbance detected in wells without added stain. Treated samples were compared with the cell control in the absence of the tested compound. All experiments were carried out in triplicate. The cell cytotoxic effect of each tested compound was calculated. The optical density was measured with the microplate reader to determine the number of viable cells, and the percentage of […] was calculated as (1 − (ODt/ODc)) × 100% where ODt is the mean optical density of wells treated with the tested sample and ODc is the mean optical density of untreated cells. The relation between surviving cells and drug concentration is plotted to get the survival curve of each tumor cell line after treatment with the specified compound.

A-549 cells = assay: In vitro cytotoxicity, A-549; type: cell-based; conditions: Homo sapiens, A549; A-549 cell line
Description: as §1, §2

CHO-K1 cells = assay: In vitro cytotoxicity, CHO-K1; type: cell-based, hamster; conditions: CHO-K1 ovarian cell line
Description: as §1, §2

CDK4 enzyme = target: T1, CDK4 enzyme (Homo sapiens, UniProt P11802); assay: CDK4 enzyme inhibition assay; type: biochemical
T1 construct: purchased Reaction Biology Corp. (Kinase HotSpot service)
T1 sequence (P11802 whole entry): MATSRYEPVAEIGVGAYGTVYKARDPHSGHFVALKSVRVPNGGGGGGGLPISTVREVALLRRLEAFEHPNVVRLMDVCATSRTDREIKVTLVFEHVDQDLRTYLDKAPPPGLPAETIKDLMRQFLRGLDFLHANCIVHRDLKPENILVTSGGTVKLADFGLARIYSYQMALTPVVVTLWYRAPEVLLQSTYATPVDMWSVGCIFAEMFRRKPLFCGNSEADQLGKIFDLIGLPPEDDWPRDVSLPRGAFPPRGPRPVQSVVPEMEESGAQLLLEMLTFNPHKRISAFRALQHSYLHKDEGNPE
T1 sequence (P24385 whole entry partner): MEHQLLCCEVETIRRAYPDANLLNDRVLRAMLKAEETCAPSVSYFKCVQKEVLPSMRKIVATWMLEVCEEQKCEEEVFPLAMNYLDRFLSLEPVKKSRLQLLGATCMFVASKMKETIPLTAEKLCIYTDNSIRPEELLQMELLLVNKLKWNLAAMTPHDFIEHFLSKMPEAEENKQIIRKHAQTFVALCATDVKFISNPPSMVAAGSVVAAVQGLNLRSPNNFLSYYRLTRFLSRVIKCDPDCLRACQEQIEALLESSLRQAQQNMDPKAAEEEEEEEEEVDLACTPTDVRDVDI
Method: Reaction Biology Corp. Kinase HotSpotSM service (http://www.reactionbiology.com, accessed on 1 April 2019) was used for screening of tested compounds. CDK4 Kinase inhibitory activities were assessed by the HotSpot assay platform, which contained specific kinase/substrate pairs along with required cofactors. Base reaction buffer: 20 mM Hepes (pH 7.5), 10 mM MgCl2, 1 mM EGTA, 0.02% Brij35, 0.02 mg/mL BSA, 0.1 mM Na3VO4, 2 mM DTT, 1% DMSO. Testing compounds were dissolved in 100% DMSO to specific concentration. The serial dilution was conducted in DMSO. The reaction mixture containing the examined compound and 33P-ATP was incubated at room temperature for 2 h and radioactivity was detected by the filter-binding method. Kinase activity data were expressed as the percent remaining kinase activity in test samples compared to vehicle (dimethyl sulfoxide) reactions.
For CDK4 enzyme inhibition, CDK4 ELISA kit, Cloud-Clone Corp, US was used. This kit is used for the in vitro quantitative measurement of CDK4 concentrations in tissue homogenates, cell lysates and other biological fluids with high sensitivity and specificity. The cancer cells were treated with different amounts of each compound according to the aforementioned protocol. In addition, the cells were lysed and then treated as instructed by the manufacturer’s protocol. The absorbance of each well was detected at 450 nm using an ELISA plate reader. The results are reported as half maximal inhibitory concentration (IC50).

CDK4 [1] = conditions: cited from earlier work
CDK4 [2] = conditions: cited from earlier work; remark: listed apart in the source
CDK6 = conditions: cited from earlier work
[3] = N-aryl aminothiazoles, in vitro

| melting point | Structure (SMILES) | IC50 (MCF-7 cells) | IC50 (A-549 cells) | IC50 (CHO-K1 cells) | other results |
| --- | --- | --- | --- | --- | --- |
| 220 °C | CNC(=S)NN=C(C)c1cc2cc(Br)ccc2oc1=O [Compound 2a] | 161 nM | 451 nM | 604 nM | – |
| – | C/C(=N\NC(=S)Nc1ccccc1)c1cc2cc(Br)ccc2oc1=O [Compound 2b] | – | 15 nM | 54 nM | IC50 (CDK4 enzyme): 36 nM |
| 250 to 252 °C | CC(=NN=C1SCC(=O)N1C)c1cc2cc(Br)ccc2oc1=O [Compound 3a] | 138 nM | 560 nM | 735 nM | – |
| – | CC(=NN=C1SCC(=O)N1c1ccccc1)c1cc2cc(Br)ccc2oc1=O [Compound 3b] | 116 nM | 56 nM | 127 nM | IC50 (CDK4 enzyme): 127 nM |
| 200 °C | CC(=NN=c1scc(-c2ccccc2)n1C)c1cc2cc(Br)ccc2oc1=O [Compound 4a, 6-Bromo-3-(1-((3-methyl-4-phenylthiazol-2(3H)-ylidene)hydrazono)ethyl)-2H-chromen-2-one] | 360 nM | 537 nM | 757 nM | – |
| 234 °C | CC(=NN=c1scc(-c2ccccc2)n1-c1ccccc1)c1cc2cc(Br)ccc2oc1=O [Compound 4b, 6-Bromo-3-(1-((3,4-diphenylthiazol-2(3H)-ylidene)hydrazono)ethyl)-2H-chromen-2-one] | 861 nM | 784 nM | 968 nM | – |
| – | CC(=NN=c1scc(-c2ccc(Br)cc2)n1C)c1cc2cc(Br)ccc2oc1=O [Compound 5a, 6-Bromo-3-(1-((4-(4-bromophenyl)-3-methylthiazol-2(3H)-ylidene)hydrazono)ethyl)-2H-chromen-2-one] | 102 nM | 54 nM | 75 nM | IC50 (CDK4 enzyme): 142 nM |
| 229 °C | C/C(=N\N=c1/scc(-c2ccc(Br)cc2)n1-c1ccccc1)c1cc2cc(Br)ccc2oc1=O [Compound 5b, 6-Bromo-3-(1-((4-(4-bromophenyl)-3-phenylthiazol-2(3H)-ylidene)hydrazono)ethyl)-2H-chromen-2-one] | 305 nM | 305 nM | 414 nM | – |
| 280 °C | CC(=NN=C1SC(CC(=O)O)C(=O)N1C)c1cc2cc(Br)ccc2oc1=O (stereo not drawn) [Compound 6a, 2-(2-((1-(6-Bromo-2-oxo-2H-chromen-3-yl)ethylidene)hydrazono)-3-methyl-4-oxothiazolidin-5-yl)acetic acid] | 55 nM | 95 nM | 131 nM | – |
| 251 °C | CC(=NN=C1SC(CC(=O)O)C(=O)N1c1ccccc1)c1cc2cc(Br)ccc2oc1=O (stereo not drawn) [Compound 6b, 2-(2-((1-(6-Bromo-2-oxo-2H-chromen-3-yl)ethylidene)hydrazono)-4-oxo-3-phenylthiazolidin-5-yl)acetic acid] | 55 nM | 77 nM | 101 nM | – |
| – | O=c1oc2ccc(Br)cc2cc1-c1csc(N/N=C/c2ccccc2)n1 [Compound 9a] | 60 nM | 34 nM | 91 nM | IC50 (CDK4 enzyme): 131 nM |
| 250 °C | Cc1ccc(C=NNc2nc(-c3cc4cc(Br)ccc4oc3=O)cs2)cc1 [Compound 9b] | 295 nM | 386 nM | 522 nM | – |
| 238 °C | COc1ccc(C=NNc2nc(-c3cc4cc(Br)ccc4oc3=O)cs2)cc1OC [Compound 9c] | 479 nM | 244 nM | 649 nM | – |
| – | O=c1oc2ccc(Br)cc2cc1-c1csc(NN=Cc2ccc([N+](=O)[O-])cc2)n1 [Compound 9d] | 780 nM | 513 nM | 901 nM | – |
| 253 °C | CN(C)c1ccc(C=NNc2nc(-c3cc4cc(Br)ccc4oc3=O)cs2)cc1 [Compound 9e] | 432 nM | 242 nM | 507 nM | – |
| 278 °C | O=c1oc2ccc(Br)cc2cc1-c1csc(NN=Cc2ccc(F)cc2)n1 [Compound 9f] | 276 nM | 200 nM | 495 nM | – |
| 267 °C | O=c1oc2ccc(Br)cc2cc1-c1csc(NN=Cc2ccc(Br)cc2)n1 [Compound 9g] | 488 nM | 441 nM | 744 nM | – |
| – | Cc1ccc(C=NNc2nc(-c3cc4cc(Br)ccc4oc3=O)cs2)o1 [Compound 9h] | 534 nM | 340 nM | 574 nM | – |
| – | O=c1oc2ccc(Br)cc2cc1-c1csc(NN=Cc2ccc([N+](=O)[O-])o2)n1 [Compound 9i] | 124 nM | 75 nM | 189 nM | IC50 (CDK4 enzyme): 193 nM |
| – | CN1CC[C@H](c2c(O)cc(O)c3c(=O)cc(-c4ccccc4Cl)oc23)[C@H](O)C1 [Flavopiridol, reference compound] | 4.45 nM | 1.14 nM | 2.41 nM | – |
| – | CC(C)(C)c1cnc(CSc2cnc(Nc3ccc(S(=O)(=O)NCCO)cc3)s2)o1 [IX] | – | – | – | IC50 (CDK4 [1]; [3]): 233 nM |
| – | CC(C)(CO)CNCc1ccc(Nc2ncc(SCc3ncc(C(C)(C)C)o3)s2)nc1 [VIII] | – | – | – | IC50 (CDK4 [1]; [3]): 26 nM |
| – | CSc1nc(C)c(-c2ccnc(Nc3ccc(N4CCN(C)CC4)cn3)n2)s1 [VIIa] | – | – | – | Ki (CDK4 [2]): 7 nM; Ki (CDK6): 42 nM |
| – | CSc1nc(C)c(-c2nc(Nc3ccc(N4CCN(C)CC4)cn3)ncc2C#N)s1 [VIIb] | – | – | – | Ki (CDK4 [2]): 4 nM; Ki (CDK6): 30 nM |
| – | CSc1nc(C)c(-c2nc(Nc3ccc(N4CCN(C)CC4)cn3)ncc2F)s1 [VIIc] | – | – | – | Ki (CDK4 [2]): 2 nM; Ki (CDK6): 55 nM |
| – | c1cnc(Nc2ncc(-c3ccnc(OC4CCCCC4)n3)s2)nc1 [Va] | – | – | – | IC50 (CDK4 [1]; 2-aminothiazoles of Banyu): 4.2 nM |
| – | Cc1cc(-c2cnc(Nc3ncccn3)s2)nc(OC2CCCCC2)n1 [Vb] | – | – | – | IC50 (CDK4 [1]; 2-aminothiazoles of Banyu): 34 nM |
| – | Cc1cc(-c2cnc(Nc3nccc(CN4CCN(C)CC4)n3)s2)nc(OC2CCCCC2)n1 [Vc] | – | – | – | IC50 (CDK4 [1]; 2-aminothiazoles of Banyu): 9.2 nM |
